In article PMC8365602 (Journal of Medicinal Chemistry, 2021):
Where two headings read alike, the source gives them in different places.

How the values were obtained:
5-LOX [1] = molecular target: T1, 5-LOX (Homo sapiens, UniProt P09917); assay: 5-LOX product formation in activated PMNL; conditions: for remaining activity at 3 µM / remaining activity at 1 µM: PMNL;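 for all read-outs here: freshly isolated human PMNL in PBS pH 7.4 plus glucose, preincubated 10 min at 37 °C with compound, 5-LOX products (all-trans LTB4 isomers, 5-HETE) quantified by RP-HPLC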
T1 sequence (P09917 1-674): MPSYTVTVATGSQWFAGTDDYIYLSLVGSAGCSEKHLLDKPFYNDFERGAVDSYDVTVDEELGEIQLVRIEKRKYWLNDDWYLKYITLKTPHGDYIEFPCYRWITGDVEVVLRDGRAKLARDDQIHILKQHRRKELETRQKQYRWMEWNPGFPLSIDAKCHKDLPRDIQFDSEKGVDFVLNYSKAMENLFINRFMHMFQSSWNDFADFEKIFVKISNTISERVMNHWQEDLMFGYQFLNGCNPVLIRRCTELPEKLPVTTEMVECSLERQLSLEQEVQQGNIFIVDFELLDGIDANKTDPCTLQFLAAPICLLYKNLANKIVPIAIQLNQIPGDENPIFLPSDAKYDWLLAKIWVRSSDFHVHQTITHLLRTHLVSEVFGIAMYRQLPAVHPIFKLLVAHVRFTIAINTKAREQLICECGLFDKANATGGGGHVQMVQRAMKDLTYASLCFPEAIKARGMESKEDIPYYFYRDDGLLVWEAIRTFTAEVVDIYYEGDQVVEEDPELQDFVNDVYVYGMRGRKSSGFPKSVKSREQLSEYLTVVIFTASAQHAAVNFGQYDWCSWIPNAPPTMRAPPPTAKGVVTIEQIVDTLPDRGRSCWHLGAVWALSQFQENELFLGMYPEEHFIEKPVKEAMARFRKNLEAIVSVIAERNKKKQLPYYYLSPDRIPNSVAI

5-LOX [2] = molecular target: T1, 5-LOX; assay: Cell-free 5-LOX activity (isolated human recombinant enzyme)
[3] = read-out: 5-LOX PMNL residual activity at 3 μM
[4] = read-out: 5-LOX PMNL IC50, 5-LOX product formation in activated PMNL, mean ± SEM
[5] = read-out: 5-LOX enzyme IC50, isolated human 5-LOX, cell-free, mean ± SEM
[6] = read-out: 5-LOX enzyme residual activity at 1 μM
[7] = read-out: 5-LOX PMNL residual activity at 3 µM (Table S1)
[8] = read-out: 5-LOX enzyme residual activity at 1 µM (Table S1)

## C/C(=C\CC[C@]1(C)CCc2cc(O)cc(C)c2O1)CC/C=C/C(=O)O [Compound 16, (2E,6E)-9-[(2R)-6-Hydroxy-2,8-dimethyl-3,4-dihydro-2H-1-benzopyran-2-yl]-6-methylnona-2,6-dienoic Acid]
5-LOX [1]; [3]
  remaining activity at 3 µM: 77 ± 3.9%
5-LOX [1]; [4]
  IC50: > 3 µM
5-LOX [2]; [5]
  IC50: 0.92 ± 0.04 µM
5-LOX [2]; [6]
  remaining activity at 1 µM: 47.3 ± 1.1%

## C/C(=C\CC/C(C)=C/CC[C@]1(C)CCc2c(CN3CCCC3)c(O)cc(C)c2O1)CCC=C(CO)CO [Compound 35, 2-((4E,8E)-11-((R)-6-Hydroxy-2,8-dimethyl-5-(pyrrolidin-1-ylmethyl)chroman-2-yl)-4,8-dimethylundeca-4,8-dien-1-ylidene)propane-1,3-diol]
5-LOX [1]; [3]
  remaining activity at 3 µM: 17.4 ± 2.4%
5-LOX [1]; [4]
  IC50: 1.9 ± 0.11 µM
5-LOX [2]; [5]
  IC50: 0.17 ± 0.03 µM
5-LOX [2]; [6]
  remaining activity at 1 µM: 4.1 ± 0.2%

## C/C(=C\CC/C(C)=C/CC[C@]1(C)CCc2cc(O)c(C)c(C)c2O1)CC/C=C(\C)C(=O)O [Compound 13c]
5-LOX [1]; [3]
  remaining activity at 3 µM: 1.6 ± 1.6%
5-LOX [2]; [6]
  remaining activity at 1 µM: 4.1 ± 3.6%

## Cc1c(C=O)c(O)c(Cl)c2c1O[C@](C)(CCC[C@H](C)CCC[C@H](C)CCCC(C)C)CC2 [Compound 2, (R)-5-Chloro-6-hydroxy-2,8-dimethyl-2-((4R,8R)-4,8,12-trimethyltridecyl)chromane-7-carbaldehyde]
5-LOX [1]
  IC50: > 3 µM
5-LOX [1]; [7]
  remaining activity at 3 µM: 110 ± 10.7%
5-LOX [2]
  IC50: > 1 µM
5-LOX [2]; [8]
  remaining activity at 1 µM: 72.9 ± 5.6%

## C/C(=C\CC/C(C)=C/CC[C@]1(C)CCc2c(CN3CCN(C)CC3)c(O)cc(C)c2O1)CCC=C(CO)CO [Compound 39, 2-((4E,8E)-11-((R)-6-Hydroxy-2,8-dimethyl-5-((4-methylpiperazin-1-yl)methyl)chroman-2-yl)-4,8-dimethylundeca-4,8-dien-1-ylidene)propane-1,3-diol]
5-LOX [1]; [3]
  remaining activity at 3 µM: 21.6 ± 6.8%
5-LOX [1]; [4]
  IC50: 2.03 ± 0.16 µM
5-LOX [2]; [5]
  IC50: 0.31 ± 0.07 µM
5-LOX [2]; [6]
  remaining activity at 1 µM: 16 ± 1.9%

## C/C(=C\CC/C(C)=C/CC[C@]1(C)CCc2c(CN(C)C)c(O)c(CN(C)C)c(C)c2O1)CC/C=C(\C)C(=O)O [Compound 24]
5-LOX [1]; [3]
  remaining activity at 3 µM: 82.1 ± 24.1%
5-LOX [1]; [4]
  IC50: > 3 µM
5-LOX [2]; [5]
  IC50: > 1 µM
5-LOX [2]; [6]
  remaining activity at 1 µM: 95.2 ± 7.9%

## C/C(=C\CC/C(C)=C/CC[C@]1(C)CCc2cc(O)cc(C)c2O1)CCC=C(CO)CO [Compound 27d, δ-amplexichromanol]
5-LOX [1]; read-out: 5-LOX PMNL residual activity at 1 μM (cells marked b)
  remaining activity at 1 µM: 14.7 ± 1.6%
5-LOX [1]; [4]
  IC50: 0.43 ± 0.04 µM
5-LOX [2]; [6]
  remaining activity at 1 µM: 1.8 ± 0.9%

## C/C(=C\CC/C(C)=C/CC[C@]1(C)CCc2c(C=O)c(O)cc(C)c2O1)CCC=C(CO)CO [Compound 34]
5-LOX [1]; [3]
  remaining activity at 3 µM: 6.1 ± 0.1%
5-LOX [1]; [4]
  IC50: 1.81 ± 0.32 µM
5-LOX [2]; [5]
  IC50: 0.17 ± 0.06 µM
5-LOX [2]; [6]
  remaining activity at 1 µM: 13.8 ± 4.4%

## Cc1cc(O)cc2c1O[C@](C)(CCCC(C)CCCC(C)CCCC(CO)CO)CC2 (stereo partly drawn) [Compound 26, 2-(11-((R)-6-Hydroxy-2,8-dimethylchroman-2-yl)-4,8-dimethylundecyl)propane-1,3-diol]
5-LOX [1]; [3]
  remaining activity at 3 µM: 81.3 ± 0.7%
5-LOX [1]; [4]
  IC50: > 3 µM
5-LOX [2]; [5]
  IC50: > 1 µM
5-LOX [2]; [6]
  remaining activity at 1 µM: 53.1 ± 7.4%

## COC(=O)/C(C)=C/CC/C(C)=C/CC/C(C)=C/CC[C@]1(C)CCc2c(c(C)cc(O)c2C(=O)OC)O1 [Compound 25, (R)-Methyl-6-hydroxy-2-((3E,7E,11E)-13-methoxy-4,8,12-trimethyl-13-oxotrideca-3,7,11-trien-1-yl)-2,8-dimethylchroman-5-carboxylate]
5-LOX [1]; [3]
  remaining activity at 3 µM: 79.9 ± 3.6%
5-LOX [1]; [4]
  IC50: > 3 µM
5-LOX [2]; [5]
  IC50: > 1 µM
5-LOX [2]; [6]
  remaining activity at 1 µM: 54.5 ± 8.4%

## C/C(=C\CC[C@]1(C)CCc2cc(O)cc(C)c2O1)CC/C=C(\C)CCC(=O)O [Compound 15b, (4E,8E)-11-((R)-6-Hydroxy-2,8-dimethylchroman-2-yl)-4,8-dimethylundeca-4,8-dienoic Acid]
5-LOX [1]; [3]
  remaining activity at 3 µM: 32 ± 9.8%
5-LOX [1]; [4]
  IC50: 2.19 ± 0.4 µM
5-LOX [2]; [5]
  IC50: 0.47 ± 0.14 µM
5-LOX [2]; [6]
  remaining activity at 1 µM: 28.8 ± 5.2%

## C/C(=C\CC/C(C)=C/CC[C@]1(C)CCc2c(CO)c(O)cc(C)c2O1)CCC=C1COC(c2ccc([N+](=O)[O-])cc2)OC1 (stereo partly drawn) [Compound 48, (2R)-2-((3E,7E)-4,8-Dimethyl-11-(2-(4-nitrophenyl)-1,3-dioxan-5-ylidene)undeca-3,7-dien-1-yl)-5-(hydroxymethyl)-2,8-dimethylchroman-6-ol]
5-LOX [1]
  IC50: 0.49 ± 0.13 µM
5-LOX [1]; [3]
  remaining activity at 3 µM: 15.4 ± 1.9%
5-LOX [2]
  IC50: 0.21 ± 0.13 µM
5-LOX [2]; [6]
  remaining activity at 1 µM: 14 ± 3.2%

## C/C(=C\CC/C(C)=C/CC[C@]1(C)CCc2c(CN3CCOCC3)c(O)cc(C)c2O1)CCC=C(CO)CO [Compound 37, 2-((4E,8E)-11-((R)-6-Hydroxy-2,8-dimethyl-5-(morpholinomethyl)chroman-2-yl)-4,8-dimethylundeca-4,8-dien-1-ylidene)propane-1,3-diol]
5-LOX [1]; [3]
  remaining activity at 3 µM: 11.3 ± 3.3%
5-LOX [1]; [4]
  IC50: 1.74 ± 0.09 µM
5-LOX [2]; [5]
  IC50: 0.12 ± 0.03 µM
5-LOX [2]; [6]
  remaining activity at 1 µM: 3.9 ± 0.6%

## CC(C)=CCC/C(C)=C/CC/C(C)=C/CC[C@]1(C)CCc2c(C=O)c(O)cc(C)c2O1 [Compound 7]
5-LOX [1]
  IC50: > 3 µM
5-LOX [1]; [7]
  remaining activity at 3 µM: 87.1 ± 8%
5-LOX [2]
  IC50: > 1 µM
5-LOX [2]; [8]
  remaining activity at 1 µM: 74.5 ± 4.3%

## Cc1cc(O)cc2c1O[C@](C)(CCC=C(CO)CO)CC2 [Compound 29, (R)-2-(3-(6-Hydroxy-2,8-dimethylchroman-2-yl)propylidene)propane-1,3-diol]
5-LOX [1]; [3]
  remaining activity at 3 µM: 86.4 ± 0.8%
5-LOX [1]; [4]
  IC50: > 3 µM
5-LOX [2]; [5]
  IC50: > 1 µM
5-LOX [2]; [6]
  remaining activity at 1 µM: 79.7 ± 3.5%

## C/C(=C\CC[C@]1(C)CCc2cc(O)cc(C)c2O1)CC/C=C(\C)CCCC(C)C(=O)O (stereo partly drawn) [Compound 19b, (6E,10E)-13-((R)-6-Hydroxy-2,8-dimethylchroman-2-yl)-2,6,10-trimethyltrideca-6,10-dienoic Acid]
5-LOX [1]; [3]
  remaining activity at 3 µM: 3.8 ± 0.8%
5-LOX [1]; [4]
  IC50: 0.61 ± 0.15 µM
5-LOX [2]; [6]
  remaining activity at 1 µM: 7.4 ± 2.7%

## Cc1cc(O)c(C(=O)O)c2c1O[C@](C)(CCC[C@H](C)CCC[C@H](C)CCCC(C)C)CC2 [Compound 5]
5-LOX [1]
  IC50: > 3 µM
5-LOX [1]; [7]
  remaining activity at 3 µM: 80.8 ± 0.6%
5-LOX [2]
  IC50: > 1 µM
5-LOX [2]; [8]
  remaining activity at 1 µM: 54.6 ± 5.8%

## CC(=O)c1cc2c3c(c(C)cc2oc1=O)O[C@](C)(CC/C=C(\C)CC/C=C(\C)CCC=C(CO)CO)CC3 [Compound 42, (R)-2-Acetyl-8-((3E,7E)-13-hydroxy-12-(hydroxymethyl)-4,8-dimethyltrideca-3,7,11-trien-1-yl)-6,8-dimethyl-9,10-dihydropyrano[3,2-f]chromen-3(8H)-one]
5-LOX [1]; [3]
  remaining activity at 3 µM: 15.3 ± 6.9%
5-LOX [1]; [4]
  IC50: 1.44 ± 0.42 µM
5-LOX [2]; [5]
  IC50: 0.21 ± 0.02 µM
5-LOX [2]; [6]
  remaining activity at 1 µM: 23.3 ± 2.3%

## C/C(=C\CC/C(C)=C/CC[C@]1(C)CCc2cc(O)cc(C)c2O1)CC/C=C(/C=O)CO [Compound 11]
5-LOX [1]
  IC50: 0.57 ± 0.09 µM
5-LOX [1]; read-out: 5-LOX PMNL residual activity at 1 µM (Table S1, cell marked b)
  remaining activity at 1 µM: 17.6 ± 1.3%
5-LOX [2]
  IC50: 0.12 ± 0.05 µM
5-LOX [2]; [8]
  remaining activity at 1 µM: 0.4 ± 0.3%

## CC(C)=CCC/C(C)=C/CC/C(C)=C/CC[C@]1(C)CCc2c(C=O)c(O)c(Br)c(C)c2O1 [Compound 8]
5-LOX [1]
  IC50: > 3 µM
5-LOX [1]; [7]
  remaining activity at 3 µM: 79.2 ± 16.7%
5-LOX [2]
  IC50: > 1 µM
5-LOX [2]; [8]
  remaining activity at 1 µM: 59 ± 5.9%

## C/C(=C\CC/C(C)=C/CC[C@]1(C)CCc2cc(O)cc(C)c2O1)CC/C=C/C(=O)O [Compound 14, (2E,6E,10E)-13-[(2R)-6-Hydroxy-2,8-dimethyl-3,4-dihydro-2H-1-benzopyran-2-yl]-6,10-dimethyltrideca-2,6,10-trienoic Acid]
5-LOX [1]; [3]
  remaining activity at 3 µM: 26.9 ± 4.8%
5-LOX [1]; [4]
  IC50: 2.2 ± 0.14 µM
5-LOX [2]; [5]
  IC50: 0.44 ± 0.08 µM
5-LOX [2]; [6]
  remaining activity at 1 µM: 24.5 ± 2.8%

## CCOC(=O)c1cc2c3c(c(C)cc2oc1=O)O[C@](C)(CC/C=C(\C)CC/C=C(\C)CCC=C(CO)CO)CC3 [Compound 43, Ethyl-(R)-8-((3E,7E)-13-hydroxy-12-(hydroxymethyl)-4,8-dimethyltrideca-3,7,11-trien-1-yl)-6,8-dimethyl-3-oxo-3,8,9,10-tetrahydropyrano[3,2-f]chromene-2-carboxylate]
5-LOX [1]; [3]
  remaining activity at 3 µM: 8.1 ± 1%
5-LOX [1]; [4]
  IC50: 1.58 ± 0.21 µM
5-LOX [2]; [5]
  IC50: 0.47 ± 0.14 µM
5-LOX [2]; [6]
  remaining activity at 1 µM: 29.3 ± 2.6%
